Read-outs that look alike come from different tables or passages of the source.
Experiments:
Assay in all cases: In vitro competitive activity-based protein profiling (gel-based, FP-Rh or HT-01 probe)
Assay type in all cases: biochemical
FAAH = target: T1, FAAH (Mus musculus, UniProt O08914); settings: for inhibition at 1 µM: 1 μM inhibitor, read-out: % Inhibition at 1 μM, B = FAAH; for inhibition at 10 µM: 10 μM inhibitor, read-out: % Inhibition at 10 μM, B = FAAH
T1 construct: Proteomes (mouse brain membrane fraction or cell lysates); from tissue; host or cells: mouse brain membrane fraction (or cell lysates, not specified)
T1 sequence (O08914 1-579): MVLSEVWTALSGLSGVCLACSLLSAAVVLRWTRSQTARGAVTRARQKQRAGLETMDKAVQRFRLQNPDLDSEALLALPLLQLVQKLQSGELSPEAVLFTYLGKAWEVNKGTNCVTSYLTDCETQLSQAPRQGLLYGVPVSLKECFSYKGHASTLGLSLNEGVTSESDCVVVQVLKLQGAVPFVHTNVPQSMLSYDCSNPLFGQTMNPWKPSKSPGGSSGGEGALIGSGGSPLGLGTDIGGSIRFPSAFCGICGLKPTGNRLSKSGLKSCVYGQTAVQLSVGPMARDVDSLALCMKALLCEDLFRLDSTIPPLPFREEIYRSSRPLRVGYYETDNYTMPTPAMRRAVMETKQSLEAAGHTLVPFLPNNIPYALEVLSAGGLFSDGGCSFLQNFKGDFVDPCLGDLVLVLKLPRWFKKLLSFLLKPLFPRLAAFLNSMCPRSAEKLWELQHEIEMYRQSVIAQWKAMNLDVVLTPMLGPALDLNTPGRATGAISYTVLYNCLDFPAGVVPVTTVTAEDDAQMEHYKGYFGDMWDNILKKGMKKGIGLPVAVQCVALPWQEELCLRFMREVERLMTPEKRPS
Summary of the method: (§1)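 Mouse brain membrane proteome or cell lysate (1.0 mg/mL protein) was preincubated with inhibitor at varying concentrations for 30 min at 37° C, then labelled with FP-Rh or HT-01 for 30 min at 37° C. After SDS-PAGE, residual hydrolase activity was quantified as in-gel fluorescence of each band.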

ABHD6 = target: T2, ABHD6 (Mus musculus, UniProt Q8R2Y0); settings: for inhibition at 1 µM: 1 μM inhibitor, read-out: % Inhibition at 1 μM, C = ABHD6; for inhibition at 10 µM: 10 μM inhibitor, read-out: % Inhibition at 10 μM, C = ABHD6
T2 construct: Proteomes (mouse brain membrane fraction or cell lysates); from tissue; host or cells: mouse brain membrane fraction (or cell lysates, not specified)
T2 sequence (Q8R2Y0 1-336): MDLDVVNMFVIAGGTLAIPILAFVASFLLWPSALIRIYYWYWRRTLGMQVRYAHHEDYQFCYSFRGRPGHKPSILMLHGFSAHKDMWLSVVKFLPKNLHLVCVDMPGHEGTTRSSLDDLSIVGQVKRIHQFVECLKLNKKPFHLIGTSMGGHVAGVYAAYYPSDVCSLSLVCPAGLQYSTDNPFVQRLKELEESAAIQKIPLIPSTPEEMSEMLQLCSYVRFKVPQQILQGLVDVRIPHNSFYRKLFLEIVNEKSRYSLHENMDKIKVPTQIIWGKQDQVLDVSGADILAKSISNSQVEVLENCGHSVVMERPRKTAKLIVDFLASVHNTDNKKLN
Summary of the method: as §1

MAGL = target: T3, MAGL (Mus musculus, UniProt O35678); settings: for inhibition at 1 µM: 1 μM inhibitor; for inhibition at 10 µM: 10 μM inhibitor
T3 construct: Proteomes (mouse brain membrane fraction or cell lysates); from tissue; host or cells: mouse brain membrane fraction (or cell lysates, not specified)
T3 sequence (O35678 1-303): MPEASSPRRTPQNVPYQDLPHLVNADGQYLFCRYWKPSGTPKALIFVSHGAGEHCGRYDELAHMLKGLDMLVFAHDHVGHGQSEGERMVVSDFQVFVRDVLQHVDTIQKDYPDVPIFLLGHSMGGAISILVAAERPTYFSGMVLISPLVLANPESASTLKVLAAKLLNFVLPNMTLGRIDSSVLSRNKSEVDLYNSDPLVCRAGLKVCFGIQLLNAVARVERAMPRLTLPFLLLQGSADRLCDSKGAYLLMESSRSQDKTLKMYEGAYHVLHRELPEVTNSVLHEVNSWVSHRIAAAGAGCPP
Summary of the method: as §1

PLA2G7 = target: T4, PLA2G7 (Mus musculus, UniProt Q60963); settings: for inhibition at 1 µM: 1 μM inhibitor, read-out: % Inhibition at 1 μM, D = PLA2G7; for inhibition at 10 µM: 10 μM inhibitor, read-out: % Inhibition at 10 μM, D = PLA2G7; for IC50: mouse brain membrane fraction or cell lysates, 30 min preincubation at 37° C.
T4 construct: Proteomes (mouse brain membrane fraction or cell lysates); from tissue; host or cells: mouse brain membrane fraction (or cell lysates, not specified)
T4 sequence (Q60963 22-440): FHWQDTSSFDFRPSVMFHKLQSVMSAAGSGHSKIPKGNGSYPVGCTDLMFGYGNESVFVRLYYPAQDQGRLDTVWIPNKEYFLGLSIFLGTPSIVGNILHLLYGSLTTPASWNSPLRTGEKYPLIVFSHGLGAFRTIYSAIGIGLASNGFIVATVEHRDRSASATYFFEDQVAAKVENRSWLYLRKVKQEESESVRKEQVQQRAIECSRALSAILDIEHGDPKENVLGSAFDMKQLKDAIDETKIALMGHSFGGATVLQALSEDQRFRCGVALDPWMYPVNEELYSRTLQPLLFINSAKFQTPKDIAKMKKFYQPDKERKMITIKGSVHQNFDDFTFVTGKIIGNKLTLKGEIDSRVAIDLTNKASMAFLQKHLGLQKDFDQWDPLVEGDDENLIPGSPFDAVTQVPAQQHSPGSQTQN
Summary of the method: as §1

[1] = mouse brain membrane fraction or cell lysates, 30 min preincubation at 37° C., read-out: Mouse (IC50 value, nM) FAAH
[2] = mouse brain membrane fraction or cell lysates, 30 min preincubation at 37° C., read-out: Mouse (IC50 value, nM) ABHD6
[3] = mouse brain membrane fraction or cell lysates, 30 min preincubation at 37° C., read-out: Mouse (IC50 value, nM) MAGL

Row | Compound | inhibition at 1 µM (FAAH) | inhibition at 10 µM (FAAH) | inhibition at 1 µM (ABHD6) | inhibition at 10 µM (ABHD6) | inhibition at 1 µM (MAGL) | inhibition at 10 µM (MAGL) | inhibition at 1 µM (PLA2G7) | inhibition at 10 µM (PLA2G7) | IC50 (FAAH; [1]) | IC50 (ABHD6; [2]) | IC50 (MAGL; [3]) | IC50 (PLA2G7) | IC50 (FAAH) | IC50 (ABHD6) | IC50 (MAGL)
1 | CS(=O)(=O)N1CCCN(C(=O)n2cc(C#N)cn2)CC1 [Example 178, 1-(4-(methylsulfonyl)-1,4-diazepane-1-carbonyl)-1H-pyrazole-4-carbonitrile] | < 25% | > 75% | < 25% | > 75% | < 25% | > 75% | < 25% | 25 to 75% |  |  |  |  |  |  | 
2 | N#Cc1cnn(C(=O)N2CCCN(Cc3ccccc3)CC2)c1 [Example 179, 1-(4-Benzyl-1,4-diazepane-1-carbonyl)-1H-pyrazole-4-carbonitrile] | > 75% | > 75% | > 75% | > 75% | > 75% | > 75% | < 25% | > 75% | < 100 nM | > 1000 nM | > 1000 nM | > 1000 nM |  |  | 
3 | N#Cc1cnn(C(=O)N2CCCN(C(=O)c3ccccc3)CC2)c1 [Example 180, 1-(4-Benzoyl-1,4-diazepane-1-carbonyl)-1H-pyrazole-4-carbonitrile] | > 75% | > 75% | > 75% | > 75% | > 75% | > 75% | < 25% | > 75% | 100 to 1000 nM | > 1000 nM | 100 to 1000 nM | > 1000 nM |  |  | 
4 | CC(=O)N(C)CCN(C)C(=O)n1cc(C#N)cn1 [Example 181, 4-Cyano-N-methyl-N-(2-(N-methylacetamido)ethyl)-1H-pyrazole-1-carboxamide] | < 25% | > 75% | < 25% | > 75% | < 25% | < 25% | < 25% | > 75% |  |  |  |  |  |  | 
5 | CN(CCN(C)C(=O)n1cc(C#N)cn1)C(=O)c1ccccc1 [Example 182, 4-Cyano-N-methyl-N-(2-(N-methylbenzamido)ethyl)-1H-pyrazole-1-carboxamide] | > 75% | > 75% | < 25% | > 75% | < 25% | > 75% | < 25% | > 75% |  |  |  |  |  |  | 
6 | CC(=O)N1CCN(C(=O)n2cc(Cl)cn2)CC1 [Example 183, 1-(4-(4-Chloro-1H-pyrazole-1-carbonyl)piperazin-1-yl)ethanone] | < 25% | < 25% | < 25% | < 25% | < 25% | < 25% | < 25% | > 75% |  |  |  |  |  |  | 
7 | CS(=O)(=O)N1CCN(C(=O)n2cc(Cl)cn2)CC1 [Example 184, (4-Chloro-1H-pyrazol-1-yl)(4-(methylsulfonyl)piperazin-1-yl)methanone] | < 25% | 25 to 75% | > 75% | > 75% | < 25% | < 25% | > 75% | > 75% |  |  |  |  |  |  | 
8 | CN1CCN(C(=O)n2cc(Cl)cn2)CC1 [Example 185, (4-Chloro-1H-pyrazol-1-yl)(4-methylpiperazin-1-yl)methanone] | < 25% | > 75% | > 75% | > 75% | < 25% | 25 to 75% | < 25% | > 75% |  |  |  |  |  |  | 
9 | O=C(N1CCN(Cc2ccccc2)CC1)n1cc(Cl)cn1 [Example 186, (4-Benzylpiperazin-1-yl)(4-chloro-1H-pyrazol-1-yl)methanone] | > 75% | > 75% | > 75% | > 75% | > 75% | > 75% | < 25% | > 75% |  |  |  | > 1000 nM | 100 to 1000 nM | < 100 nM | < 100 nM
10 | O=C(c1ccccc1)N1CCN(C(=O)n2cc(Cl)cn2)CC1 [Example 187, (4-Benzoylpiperazin-1-yl)(4-chloro-1H-pyrazol-1-yl)methanone] | < 25% | > 75% | < 25% | 25 to 75% | 25 to 75% | > 75% | > 75% | > 75% |  |  |  |  |  |  | 
11 | CS(=O)(=O)N1CCCN(C(=O)n2cc(Cl)cn2)CC1 [Example 189, (4-Chloro-1H-pyrazol-1-yl)(4-(methylsulfonyl)-1,4-diazepan-1-yl)methanone] | > 75% | > 75% | > 75% | > 75% | < 25% | 25 to 75% | < 25% | < 25% |  |  |  |  |  |  | 
12 | O=C(N1CCCN(Cc2ccccc2)CC1)n1cc(Cl)cn1 [Example 191, (4-Benzyl-1,4-diazepan-1-yl)(4-chloro-1H-pyrazol-1-yl)methanone] | > 75% | > 75% | 25 to 75% | > 75% | < 25% | > 75% | < 25% | < 25% |  |  |  |  |  |  | 
13 | O=C(c1ccccc1)N1CCCN(C(=O)n2cc(Cl)cn2)CC1 [Example 192, (4-Benzoyl-1,4-diazepan-1-yl)(4-chloro-1H-pyrazol-1-yl)methanone] | < 25% | > 75% | 25 to 75% | > 75% | 25 to 75% | > 75% | < 25% | > 75% |  |  |  |  |  |  | 
14 | CC(=O)N(C)CCN(C)C(=O)n1cc(Cl)cn1 [Example 193, 4-Chloro-N-methyl-N-(2-(N-methylacetamido)ethyl)-1H-pyrazole-1-carboxamide] |  | < 25% |  | < 25% |  | < 25% |  | < 25% |  |  |  |  |  |  | 
15 | CN(CCN(C)C(=O)n1cc(Cl)cn1)C(=O)c1ccccc1 [Example 194, 4-Chloro-N-methyl-N-(2-(N-methylbenzamido)ethyl)-1H-pyrazole-1-carboxamide] | 25 to 75% | > 75% | < 25% | < 25% | < 25% | 25 to 75% | < 25% | < 25% |  |  |  |  |  |  | 

— patent publication US10093630B2, “Pyrazole compounds and methods of making and using same” (ABIDE THERAPEUTICS, INC., priority 2014, dated 2018)
